Data from BindingDB's records for doi:10.1016/s0960-894x(98)00417-x (Affymax Research Institute, 1999).

Legend:
[1] = target: Mannose-6-phosphate isomerase (Candida albicans) (UniProt P34948); assay: Compound was evaluated for the inhibition constant against phosphomannose isomerase enzyme of Candida albicans (CaPMI)
[2] = target: Mannose-6-phosphate isomerase (Candida albicans) (UniProt P34948); assay: Compound was tested for percentage inhibition of phosphomannose isomerase enzyme of Candida albicans (CaPMI).

Sequence of Mannose-6-phosphate isomerase (Candida albicans) (P34948 whole entry, looked up): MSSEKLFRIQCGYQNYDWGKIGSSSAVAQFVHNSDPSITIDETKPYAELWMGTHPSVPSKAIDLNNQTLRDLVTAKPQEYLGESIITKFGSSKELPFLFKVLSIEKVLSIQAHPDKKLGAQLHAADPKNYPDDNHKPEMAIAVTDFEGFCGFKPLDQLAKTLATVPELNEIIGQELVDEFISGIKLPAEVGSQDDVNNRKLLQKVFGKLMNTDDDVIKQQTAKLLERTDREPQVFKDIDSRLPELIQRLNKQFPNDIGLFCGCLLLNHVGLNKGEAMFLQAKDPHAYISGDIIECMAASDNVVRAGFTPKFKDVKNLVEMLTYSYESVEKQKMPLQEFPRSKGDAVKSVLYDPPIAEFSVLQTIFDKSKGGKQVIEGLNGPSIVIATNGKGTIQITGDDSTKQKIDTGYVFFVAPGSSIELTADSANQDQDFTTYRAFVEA

Ki [1] | IC50 [2] | SMILES
4 µM | 6 µM | O=C(CCCSc1ccc(Cl)c(Cl)c1)NC1(C(=O)NO)Cc2ccccc2C1 [2-[4-(3,4-Dichloro-phenylsulfanyl)-butyrylamino]-indan-2-carboxylic acid hydroxyamide]
4 µM |  | NC(=O)C1(NC(=O)CCCOc2ccc(Cl)cc2Cl)Cc2ccccc2C1 [2-[4-(2,4-Dichloro-phenoxy)-butyrylamino]-indan-2-carboxylic acid amide]
